In one assay the test system is T1, E. coli ATCC 25922.
T1 construct: ATCC 25922
The assay is described as follows: microbe, parasite or virus in culture. As to conditions: Escherichia coli, ATCC25922, 24 h. Further details: Bacterial growth inhibition, OD600, dose-response in 384-well plates, AC50. Here is the method:
(§1) EU-OPENSCREEN provided a subset of 2,464 bioactive compounds from the ECBL pilot library (EU-OPENSCREEN: European Chemical Biology Library - Pilot Library) as 10 mM stock solutions in 100% DMSO. The library was screened in duplicate at a final concentration of 100 μM per well (1% DMSO). The antibacterial single-concentration HTS and dose–response susceptibility assays were conducted in 384-well plates, with bacterial cell density measured by optical density at 600 nm (OD600). Compounds were distributed in duplicate on separate 384-well microtiter plates using an Echo 550® acoustic [compound left out] handler (Beckman Coulter™, Indianapolis, IN) and inoculated with bacteria to a final concentration of 10^6 CFU/mL, with a total assay volume of 25.25 μL. Plates were incubated with shaking for 24 h at 37 °C. Bacterial growth was measured by reading the OD600 using an EnVision™ microplate reader (Revvity, Waltham, MA). The activity of the compounds was expressed as the percentage of bacterial growth inhibition, and it was calculated using the following normalization: %Inhibition=100×1−(TfSample−TOSample)−(TfBlank−TOBlank)/(TfGrowth−TOGrowth)−(TfBlank−TOBlank) Where, T0 Sample is the absorbance of the strain growth in the presence of compound measured at time zero, Tf Sample is the absorbance of the strain growth in the presence of compound measured at final time, T0 Growth is the absorbance of the strain growth in the absence of compound measured at time zero, Tf Growth is the absorbance of the strain growth in the absence of compound measured at final time, T0 Blank is the absorbance of the broth medium (blank) measured at time zero, Tf Blank: the absorbance of the broth medium (blank) measured at final time; T0 is Time at 0 h and Tf is Time at 24 h. We developed and validated a high-throughput screen assay using 2464 bioactive compounds from the EU-OPENSCREEN pilot library, dispensed in 384-well plates at 100 μM final concentration, and the A. baumannii Ab ATCC 17978 and E. coli ATCC 25922 strains, as well as their respective MDR strains (Ab186 and MCR1^+) (Fig. 1A). We identified 33 compounds ([…] of the total compounds) with inhibitory activity of ≥70% against at least one or both MDR strains of Ab186 and E. coli MCR1^+. […] This compound was active against the Ab ATCC 17978 and E. coli ATCC 25922 strains, with AC50 values of 23.57 μM and 46.86 μM, respectively (Fig. 1C).

The subject of assay [1] is T2, A. baumannii Ab ATCC 17978.
T2 construct: ATCC 17978
The experiment in a line: microbe, parasite or virus in culture. Further details: species or system A. baumannii ATCC 17978; Bacterial growth inhibition, OD600, dose-response in 384-well plates, AC50. As to conditions: Acinetobacter baumannii, ATCC17978, 24 h. Here is the method:
as §1

The next assay addresses T3, enolase (AbEnolase) (Acinetobacter baumannii, UniProt A3M5Y1).
T3 construct: gene eno; wild-type enolase gene in pET-30a(+) with an N-terminal His6 tag, purified recombinant
The assay is described as follows: isothermal titration calorimetry ([…] °C, […] protein, […] ENOblock, single-site model, n = […]). The format is binding. A general note: ITC needs no label: the signal is the heat of the interaction.

Where a name gives a salt, the structure may show the parent alone.

The values that follow come from publication PMC12686454 (EMBO Molecular Medicine, 2025).

The AC50 is the midpoint of the concentration-response curve, whichever way the signal moves. High values mean weaker potency, low ones greater potency. Usually Kd stands for a measure of binding affinity in units of concentration. Read a high Kd as a looser complex.

T3 sequence (A3M5Y1 whole entry): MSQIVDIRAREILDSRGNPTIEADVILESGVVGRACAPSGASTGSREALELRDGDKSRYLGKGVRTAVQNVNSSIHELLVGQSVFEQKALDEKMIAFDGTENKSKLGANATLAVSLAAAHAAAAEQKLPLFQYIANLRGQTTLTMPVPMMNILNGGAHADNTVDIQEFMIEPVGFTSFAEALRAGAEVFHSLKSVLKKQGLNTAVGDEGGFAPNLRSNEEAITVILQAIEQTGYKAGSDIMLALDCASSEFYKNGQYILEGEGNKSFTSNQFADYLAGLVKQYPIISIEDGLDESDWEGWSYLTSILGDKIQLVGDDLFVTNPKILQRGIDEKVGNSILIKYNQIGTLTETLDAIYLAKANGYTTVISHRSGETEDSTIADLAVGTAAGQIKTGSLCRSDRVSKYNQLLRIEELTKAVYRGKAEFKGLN

`CCc1nc(N)nc(N)c1-c1ccc(Cl)cc1` [EOS101458, PYRIMETHAMINE] displayed an AC50 in the assay with E. coli ATCC 25922 of 129 µM. For the molecule `C/C(=N\N=C(N)N)c1cc(NC(=O)CCCCCCCCC(=O)Nc2cc(/C(C)=N/N=C(N)N)cc(/C(C)=N/N=C(N)N)c2)cc(/C(C)=N/N=C(N)N)c1` [EOS101827, SEMAPIMOD], the values for the AC50 (in assay [1]; with E. coli ATCC 25922) were 23.2 µM and 7.07 µM, respectively. The like results for `Cc1ccc2c(Cl)cc(Cl)c(O)c2n1` [EOS100722, CHLORQUINALDOL] were, in that order, 42.2 µM and 20.4 µM. As for `COc1cc(NCc2ccc3nc(N)nc(N)c3c2C)cc(OC)c1OC` [EOS101467, TRIMETREXATE], the AC50 was found to be 24.1 µM in assay [1] and 1.99 µM in the assay on E. coli ATCC 25922. Take `C=C1c2cccc(O)c2C(=O)C2=C(O)[C@]3(O)C(=O)C(C(N)=O)=C(O)[C@@H](N(C)C)[C@@H]3[C@@H](O)[C@H]12` [EOS100925, METHACYCLINE HYDROCHLORIDE]: the AC50 with E. coli ATCC 25922 stood at 95 µM. On to `Oc1cccc2cccnc12` [EOS100874, OXYQUINOLINE], for which the half-maximal activity concentration (AC50) in assay [1] stood at 71.9 µM; with E. coli ATCC 25922, 173 µM. With `O=[N+]([O-])c1ccc(Sc2cccc[n+]2[O-])c2nonc12` [EOS100077, NSC228155], the concentration at half-maximal activity (AC50) in assay [1] turned out to be 32 µM; with E. coli ATCC 25922, 19.1 µM. The like results for `Oc1c(Cl)cc(Cl)c(Cl)c1Cc1c(O)c(Cl)cc(Cl)c1Cl` [EOS100333, HEXACHLOROPHENE] were, in that order, 4.77 µM and 37.3 µM.

For the molecule `CCN1/C(=C/c2ccc3ccccc3[n+]2CC)C=Cc2ccccc21` [EOS102018, DECYNIUM 22], the AC50 in assay [1] worked out at 54.3 µM; with E. coli ATCC 25922 it was 92.9 µM. `CN(C)c1ccc(C(=C2C=CC(=[N+](C)C)C=C2)c2ccc(N(C)C)cc2)cc1` [EOS102093, GENTIAN VIOLET]: in assay [1], the AC50 worked out at 32.7 µM. Turning to `COc1cc(/C=C/C(O)=C/C(=O)/C=C/c2ccc(O)cc2)ccc1O` [EOS100220, DEMETHOXYCURCUMIN], the figures for the AC50 (in assay [1]; with E. coli ATCC 25922) were 51 µM and 56.1 µM, respectively. The molecule `C[C@H]1CO[C@@H]2Cn3cc(C(=O)NCc4ccc(F)cc4F)c(=O)c(O)c3C(=O)N12` [EOS100194, CABOTEGRAVIR] showed a half-maximal activity concentration (AC50) in assay [1] of 113 µM. On to `CC(C)C[C@H](NC(=O)[C@H](CCc1ccccc1)NC(=O)CN1CCOCC1)C(=O)N[C@@H](Cc1ccccc1)C(=O)N[C@@H](CC(C)C)C(=O)[C@@]1(C)CO1` [EOS101232, CARFILZOMIB], for which the activity in the assay on E. coli ATCC 25922 was half-maximal at 31.4 µM (AC50). This counts as double-digit micromolar.

For the molecule `c1ccc2c(c1)[I+]c1ccccc1-2` [EOS101209, DIPHENYLENEIODONIUM], the concentration at half-maximal activity (AC50) is 3.09 µM in assay [1] and 2.02 µM in the assay on E. coli ATCC 25922.

As to `Oc1c(Cl)cc(Cl)c2cccnc12` [EOS100951, CHLOROXINE], the AC50 turned out to be 7.47 µM in assay [1] and 10.1 µM with E. coli ATCC 25922. In turn, `O=S(=O)(NCCNC/C=C/c1ccc(Br)cc1)c1cccc2cnccc12` [EOS101763, H-89 DIHYDROCHLORIDE] registered an AC50 with E. coli ATCC 25922 of 65.9 µM. For the molecule `CC(C)c1cccc(=O)c(O)c1` [EOS100813, HINOKITIOL], the results for the AC50 (in assay [1]; in the assay with E. coli ATCC 25922) were 41 µM and 48.3 µM, respectively.

For `NCCOCCOCCNC(=O)Cc1ccc(Nc2nc(NCc3ccc(F)cc3)nc(NCC3CCCCC3)n2)cc1` [EOS100979, AP-III-A4(ENOBLOCK)], the AC50 stood at 23.6 µM in assay [1] and 46.9 µM with E. coli ATCC 25922. In the case of `NC(=S)N/N=C/c1ncccc1N` [EOS100248, TRIAPINE], the AC50 in assay [1] stood at 65.7 µM; in the assay with E. coli ATCC 25922, 101 µM. In the case of `[O-][n+]1ccccc1S` [EOS101921, PYRITHIONE], the AC50 was determined as 33.9 µM in assay [1] and 17.8 µM with E. coli ATCC 25922. The like results for `CCN1CCN(C(c2ccc(C(F)(F)F)cc2)c2ccc3cccnc3c2O)CC1` (centres unmarked) [EOS100820, ML311] were, in that order, 32.7 µM and 82.9 µM. `NCCOCCOCCNC(=O)Cc1ccc(Nc2nc(NCc3ccc(F)cc3)nc(NCC3CCCCC3)n2)cc1` [ENOblock] showed a Kd on enolase (AbEnolase) of 2.9 ± 0.78 µM. Consider `Oc1c(I)cc(I)c2cccnc12` [EOS100343, DIIODOHYDROXYQUINOLINE], for which the results for the AC50 (in assay [1]; with E. coli ATCC 25922) were 62.8 µM and 55.1 µM, respectively. Regarding `c1ccc(-c2cccc(-c3ccccn3)n2)nc1` [EOS102213, TERPYRIDINE], the AC50 in assay [1] came to 13.1 µM; in the assay on E. coli ATCC 25922 it was 52.3 µM.

In the assay on E. coli ATCC 25922, `COc1ccc(Cc2cnc(N)nc2N)cc1OC` [EOS100884, DIAVERIDINE] had an AC50 of 1.26 µM. As to `CC(C)(Cc1ccc2ccccc2c1)NC[C@@H](O)COc1cccc(Cl)c1C#N` [EOS101044, NPS-2143], the half-maximal activity concentration (AC50) stood at 27.2 µM in assay [1] and 47.6 µM with E. coli ATCC 25922. `Oc1c(Cl)cc(Cl)cc1Sc1cc(Cl)cc(Cl)c1O` [EOS101771, BITHIONOL]: the results for the AC50 (in assay [1]; in the assay on E. coli ATCC 25922) were 14.6 µM and 42.9 µM, respectively. For `Cn1cc(C2=C(c3cn(CCCSC(=N)N)c4ccccc34)C(=O)NC2=O)c2ccccc21` [EOS101001, BISINDOLYLMALEIMIDE IX] the same measures were 48.9 µM and 109 µM. The like results for `Cc1nc2c(=O)n(C)c(=O)nc-2n(C)n1` [EOS100293, 3-METHYLTOXOFLAVIN] were, in that order, 14.3 µM and 9.33 µM.

In the case of `Cc1c2ccncc2c(C)c2c1[nH]c1ccccc12` [EOS100555, ELLIPTICINE], the AC50 in assay [1] turned out to be 48.9 µM; in the assay with E. coli ATCC 25922, 64 µM. Molecule `C[C@@H]1CCO[C@H]2Cn3cc(C(=O)NCc4ccc(F)cc4F)c(=O)c(O)c3C(=O)N12` [EOS101330, DOLUTEGRAVIR] yielded an AC50 in assay [1] of 21.9 µM. That is a double-digit micromolar value.
